# From patent publication US9364496B2 (ONCOGENEX TECHNOLOGIES INC., priority 2013, dated 2016)
# Several values for one entry are separate records, joined by “and”; a condition that tells them apart may be missing. Equal values may be shown once. Entries after “also recorded” stand apart in the source; their conditions may differ. Read-outs that look alike come from different tables or passages of the source.
# How the values were obtained:
# [1] = Randomized Phase 2 Study OGX-011-03, custirsen plus docetaxel vs docetaxel; conditions: per arm
# [2] = cited from earlier work
# [3] = test system: RPMI 8226 (human myeloma) xenograft; assay: In vivo activity of custirsen with Velcade, RPMI 8226 xenograft (Example 14); conditions: for efficacy (tumor growth), in words: Velcade 0.5 mg/kg iv; for Day 27 Δ volume / Day 34 Δ volume / Day 41 Δ volume / Day 45 Δ volume: vs Day 20
# Description: The cells were implanted subcutaneously into female SCID mice with 7×10^6 cells inoculum.
# Tumors and body weights were measured weekly until termination of the study on day 71. Response to treatment was evaluated for tumor growth inhibition (TGI) and tumor growth delay (TGD).
# 70 CB.17 SCID female mice, 4-6 weeks old, 16-20 grams, obtained from Harlan animal breeding center.
# Sample from the cell suspension was taken for counting (0.3 ml in duplicates for CEDEX) before spun down. Cell viability was 85.6% and live cell concentration was 167×10^5 cells/ml. The pellet was resuspended in HBSS to a final volume of 8 ml.
# Tumors were implanted subcutaneously with RPMI-8226 cells into the right flank of the mouse on Day 0. Each animal received a s.c. injection 7×10^6 cells in 0.1 ml suspension. On day 20, mice were sorted by the optimal tumor volume ([…]) and were allocated into 5 groups of 10 mice. Mice were individually tagged and their tumor volume and body weight were monitored weekly during the study. Tumor size was measured by caliper and calculated using the formula: […]
# The treatment started on […] (0.2 ml per 20 grams v/w) and continued till day 52, after which the remaining mice were left for observation until day 71.
# [4] = Velcade 0.5 mg/kg iv biwk, Day 48, individual mice
# [5] = Velcade 0.5 mg/kg iv biwk, Day 51, group mean
# [6] = Velcade 0.5 mg/kg iv biwk, Day 51, individual mice
# [7] = Velcade 0.5 mg/kg iv biwk, day 51
# [8] = Velcade 0.5 mg/kg iv biwk, earlier day (day not given), group mean, tumor
# [9] = Velcade 0.5 mg/kg iv biwk, earlier day (day not given), individual mouse, tumor
# [10] = Velcade 0.5 mg/kg iv biwk, group Mean, n 10
# [11] = Velcade 0.5 mg/kg iv biwk, individual mouse
# [12] = Velcade 0.5 mg/kg iv biwk, later day (day not given), group mean, tumor
# [13] = Velcade 0.5 mg/kg iv biwk, later day (day not given), individual mouse, tumor
smiles,measurement,setting,value
CC(=O)O[C@@]12CO[C@@H]1C[C@H](O)[C@@]1(C)C(=O)[C@H](O)C3=C(C)[C@@H](OC(=O)[C@H](O)[C@@H](NC(=O)OC(C)(C)C)c4ccccc4)C[C@@](O)([C@@H](OC(=O)c4ccccc4)[C@H]21)C3(C)C [Docetaxel],incidence of elevated creatinine (primarily grade 1/2),[1],5%
same,"grade 4 neutropenia (<500 cells/mm^3), patients",[2]; 60 mg/m^2,75%
same,"grade 4 neutropenia (<500 cells/mm^3), patients",[2]; 100 mg/m^2,85%
same,"neutropenia (<2,000 neutrophils/mm3), occurrence",[2]; 60-100 mg/m^2,virtually all patients
"CC(C)C[C@H](NC(=O)[C@H](Cc1ccccc1)NC(=O)c1cnccn1)B(O)O [Velcade®, Bortezomib, reference compound]","efficacy (tumor growth), in words",[3],moderate but not statistically significant efficacy; also recorded: moderate and not statistically significant effect
same,volume,"[3]; Velcade 0.5 mg/kg iv biwk, Day 48, group mean",749.8
same,volume,[3]; [4],520 and 868 and 757 and 647 and 687 and 470 and 1151 and 789
same,Δ volume,[3]; [4],401.6 and 745.2 and 624.2 and 508.9 and 919.1 and 403.8 and 310.7 and 988.8 and 625.7
same,volume,[3]; [5],1027.5
same,Δ volume,[3]; [5],884.2
same,volume,[3]; [6],767 and 1043 and 1313 and 774 and 1432 and 917 and 1635 and 1195
same,Δ volume,[3]; [6],648.2 and 920.6 and 1179.9 and 636.4 and 1291.7 and 474.1 and 768.2 and 418.7 and 1473.4 and 1031.3
same,% TGI day 51,[3]; [7],28%
same,No. of CR,[3]; [7],0
same,No. of PR,[3]; [7],0
same,No. of TRD,[3]; [7],0
same,No. og nTRD,[3]; [7],0
same,"Δ mean tumor volume, (mean ± se)",[3]; [7],884 ± 356
same,volume,[3]; [8],1366.1
same,Δ volume,[3]; [8],1224.9
same,volume,[3]; [9],1019 and 1659 and 1885 and 779 and 2196 and 721 and 1500 and 885 and 1651
same,Δ volume,[3]; [9],900.3 and 1536.1 and 1752.5 and 640.9 and 2055.5 and 1351.3 and 724.9 and 1487.1
same,Day 20 volume,[3]; [10],143.2
same,Day 27 volume,[3]; [10],213.1
same,Day 34 volume,[3]; [10],251.6
same,Day 41 volume,[3]; [10],422.8
same,Day 27 Δ volume,[3]; [10],69.9
same,Day 34 Δ volume,[3]; [10],108.3
same,Day 41 Δ volume,[3]; [10],279.5
same,Day 45 Δ volume,[3]; [10],431.8
same,Day 20 volume,[3]; [11],133 and 138 and 141 and 145 and 149 and 160 and 162 and 164
same,Day 27 volume,[3]; [11],225 (2×) and 260 and 235 and 253 and 206 and 231 and 149 and 185 and 162
same,Day 34 volume,[3]; [11],185 and 232 and 255 and 286 and 266 and 285 and 272 and 162 and 343 and 230
same,Day 41 volume,[3]; [11],289 and 481 and 501 and 387 and 491 and 443 and 475 and 269 and 528 and 384
same,Day 45 volume,[3]; [11],430 and 667 and 507 and 733 and 495 and 663 and 351 and 744
same,Day 27 Δ volume,[3]; [11],137.0 and 102.2 and 115.3 and 65.3 and 85.8 and −0.6 and 25.6 and 63.7 and −2.2
same,Day 34 Δ volume,[3]; [11],66.0 and 109.0 and 148.3 and 140.0 and 2.9 and 181.4 and 65.9
same,Day 41 Δ volume,[3]; [11],170.3 and 358.8 and 368.2 and 249.1 and 349.9 and 297.3 and 325.8 and 109.0 and 366.6 and 200.2
same,Day 45 Δ volume,[3]; [11],311.5 and 488.4 and 368.7 and 350.1 and 514.1 and 191.8 and 374.8
same,volume,[3]; [12],1236.8
same,Δ volume,[3]; [12],1096.4
same,volume,[3]; [13],1484 and 881 and 1166 and 1417
same,Δ volume,[3]; [13],1365.3 and 742.6 and 1020.7 and 1257.1
same,"efficacy (tumor growth), in words",[3]; listed as Velcade,moderate
